In patent US20230381142A1, “ANTILEISHMANIAL COMPOUNDS, COMPOSITIONS AND USE THEREOF” (TRUSTEES OF BOSTON UNIVERSITY, priority 2022, published 2023):
Converted amounts (≈) assume the structure as drawn.

Legend:
[1] = molecular target: human serum albumin (Homo sapiens, UniProt P02768); experiment: Human serum albumin (HSA) binding, chromatographic; format: in vitro ADME
Description: The percentage of compound bound to human serum albumin was measured using a chromatographic method as described. Briefly, each compound was assayed on an immobilized HSA column and gradient retention times measured, with chromatographic peak detection by UV. Each retention time was then converted to a % HSA bound value using a calibration set of compounds with a known % HSA binding.

[2] = Artificial membrane permeability (AMP); format: in vitro ADME; details: PAMPA, pH 7.4
Description: Passive permeability of compounds via rate of permeation through an artificial phospholipid membrane at pH 7.4 was measured in a high-throughput format, in duplicate. A solution of 1.8% phosphatidylcholine in 1% decane was added to a 96-well Millicell filter plate along with 250 μL of 50 mM phosphate buffer, pH 7.4 on the donor side, and 100 μL of the same buffer solution on the receiver side. The assay plate was shaken for 45 minutes before adding test compounds. Test compounds were then added to the filter plate and then incubated at room temperature with shaking for three hours. The donor and receiver solutions were next transferred to a 384-well plate for analysis by LC/MS.

[3] = Kinetic aqueous solubility by CLND; format: physicochemical; details: kinetic from dmso stock, high-throughput CLND
Description: Solubility of compounds using ChemiLuminescent Nitrogen Detection (CLND) was measured as described. Solubility of compounds using Charged Aerosol Detection (CAD) was measured as described. Solubility of solid compounds in Fasted Simulated Intestinal Fluid (FaSSIF) was measured as described.

[4] = tested on: host THP-1 macrophages; experiment: GSK inMac assay, host cell toxicity readout (LD MAC); format: cell-based, human; details: Homo sapiens, THP-1, cytotoxicity against host THP-1 macrophages
Outline: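 Intramacrophage L. donovani assay in THP-1 macrophages; host toxicity taken from host cell number per well, giving MAC EC50. Run alongside amastigote-per-cell and infected-cell readouts in the same wells.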

[5] = tested on: HepG2 cells; experiment: HepG2 cytotoxicity; format: cell-based; details: Homo sapiens; toxicity against HepG2 cells
Description: Given the literature precedents described above and the apparent narrow tolerance for R^3 substitutions observed in the primary screen compounds, a thorough and methodical assessment was undertaken of tolerated groups at the three points of diversity (R^1/R^2/R^3) for the core. At this stage of the project, all analogues were assessed using a battery of assays performed in-house at GlaxoSmithKline. For antileishmanial activity, GSK's inMac assay was utilized. This assay provides two readouts of compound potency: average number of intracellular amastigotes per infected cell (AMMAC) EC50, percentage of infected cells per well (INFCELL) EC50, as well as a toxicity output derived from the number of host cells (MAC EC50). In addition, compounds were assessed for toxicity against HepG2 cells (HEPG2 EC50). Here, AMMAC EC50 values were focused on for relative potency assessments. […] It should be noted that for all compounds assessed in this project, the measured toxicity against THP-1 macrophages either equaled or exceeded that of HepG2 hepatocytes, therefore the MAC SI is used here as the more conservative estimate of therapeutic index.

[6] = tested on: L. donovani intracellular amastigotes in B10R cells; experiment: UCSD L. donovani infection assay (Assay Conditions D); format: cell-based; details: Leishmania donovani
Outline: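 B10R cells (300/well) infected with stationary-phase L. donovani WT promastigotes at 20 parasites/cell in DMEM high-glucose, 5% FBS, with compounds 72 h at 37° C., 5% CO2. Formaldehyde-fixed, DAPI-stained, imaged by high-content microscopy; 10-point 2-fold dilutions (screen at 10 μM) gave EC50 and host CC50.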

[7] = tested on: L. donovani intracellular amastigotes infecting THP-1 macrophages; experiment: GSK intramacrophage L. donovani assay (LD AMMAC, inMac; Assay Conditions C); format: cell-based; details: Leishmania donovani; for IC50: THP-1; for EC50: growth inhibition of L. donovani intracellular amastigotes infecting THP-1 macrophages, read-out: LD AMMAC EC50
Outline: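 L. donovani amastigotes within THP-1 macrophages; EC50 based on average intracellular amastigotes per infected cell (AMMAC). Infected-cell percentage (INFCELL) and host-cell number (MAC) also read, the latter as toxicity output.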

[8] = Property forecast index (PFI = ChromLogD7.4 + aromatic rings); format: physicochemical
Description: At the outset of the project, compound 1 was evaluated against GSK's established criteria for antileishmanial compound advancement (Table 2). Some of these assessments were performed on racemic 1, while chiral separation was also pursued of the 1 racemate to determine the active enantiomer. […] Based on this promising profile, it progressed into medicinal chemistry optimization to better understand structure-activity relationships (SAR) toward improved potency, as well as structure-property relationships (SPR) with an eye toward reducing PFI and plasma protein binding.

[9] = aqueous medium (not further specified)

human serum albumin, sequence (P02768 25-609): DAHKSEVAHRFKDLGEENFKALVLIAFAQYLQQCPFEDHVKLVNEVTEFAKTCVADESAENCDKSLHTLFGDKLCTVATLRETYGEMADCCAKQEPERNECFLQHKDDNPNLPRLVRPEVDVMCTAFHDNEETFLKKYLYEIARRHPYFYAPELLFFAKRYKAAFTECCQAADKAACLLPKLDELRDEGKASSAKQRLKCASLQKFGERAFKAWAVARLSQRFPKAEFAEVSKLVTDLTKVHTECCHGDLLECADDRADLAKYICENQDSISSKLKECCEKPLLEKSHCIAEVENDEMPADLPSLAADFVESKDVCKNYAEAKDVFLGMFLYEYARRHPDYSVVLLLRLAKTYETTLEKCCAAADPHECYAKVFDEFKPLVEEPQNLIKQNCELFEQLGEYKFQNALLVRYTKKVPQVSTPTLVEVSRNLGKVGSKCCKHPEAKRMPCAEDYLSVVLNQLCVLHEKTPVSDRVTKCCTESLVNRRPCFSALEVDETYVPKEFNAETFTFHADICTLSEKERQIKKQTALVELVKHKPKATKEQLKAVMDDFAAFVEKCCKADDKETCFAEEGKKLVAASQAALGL

SMILES	HSA Binding [1] [%]	Papp at 3 h [2] [×10⁻⁶ cm/s]	solubility ([3]; aqueous (not further specified)) [µM]	EC50 [4] [µM]	EC50 [5] [µM]	IC50 [6] [nM]	IC50 [7] [nM]	EC50 [7] [µM]	PFI [8]	solubility [3, 9] [µM]	solubility ([3]; aqueous medium) [µM]
CC(C)Cc1n[nH]c2c1C(c1ccc(F)cc1)N(c1ccc(N(C)C)cc1)C2=O (stereo not drawn) [Compound 21, 5-(4-(dimethylamino)phenyl)-4-(4-fluorophenyl)-3-isobutyl-4,5-dihydropyrrolo[3,4-c]pyrazol-6(1H)-one]	96.1	16	33 (≈ 13 µg/mL)	39.8	50.1	200	1000	1	9.0		
CC(C)Cc1n[nH]c2c1C(c1ccc(F)cc1)N(CCN1CCCC1)C2=O (stereo not drawn) [Compound 39]	76.7	23		> 50	> 100	10400	15900	15.8	5.3	≥ 433	
COc1ccc(N2C(=O)c3[nH]nc(CC(C)C)c3C2c2ccc(F)cc2)cc1F (stereo not drawn) [Compound 42, 5-(3-fluoro-4-methoxyphenyl)-4-(4-fluorophenyl)-3-isobutyl-4,5-dihydropyrrolo[3,4-c]pyrazol-6(2H)-one]	96.9	29		25.1	50.1	600	1300	1.3	8.6		39 (≈ 15.5 µg/mL)
CC(C)Cc1n[nH]c2c1C(c1ccc(F)cc1)N(c1ccc3c(c1)OCO3)C2=O (stereo not drawn) [Compound 44, 5-(benzo[d][1,3]dioxol-5-yl)-4-(4-fluorophenyl)-3-isobutyl-4,5-dihydropyrrolo[3,4-c]pyrazol-6(1H)-one]	96.2	39		25.1	63.1	300	600	0.6	8.4		63 (≈ 24.8 µg/mL)
CC(C)Cc1n[nH]c2c1C(c1ccc(F)cc1)N(c1ccc3c(c1)OCCO3)C2=O (stereo not drawn) [Compound 45]	96.2	51		25.1	> 50	900	3200	3.2	8.4		50 (≈ 20.4 µg/mL)
COc1ccc(N2C(=O)c3[nH]nc(CC(C)C)c3C2c2ccccc2Cl)cc1 (stereo not drawn) [Compound 55, 4-(2-chlorophenyl)-3-isobutyl-5-(4-methoxyphenyl)-4,5-dihydropyrrolo[3,4-c]pyrazol-6(1H)-one]	97.8	33		20	31.6	200	1300	1.3	8.8	30 (≈ 11.9 µg/mL)	
COc1ccc(N2C(=O)c3[nH]nc(CC(C)C)c3C2c2ccc(F)cc2C)cc1 (stereo not drawn) [Compound 64, 4-(4-fluoro-2-methylphenyl)-3-isobutyl-5-(4-methoxyphenyl)-4,5-dihydropyrrolo[3,4-c]pyrazol-6(1H)-one]	97.2	11		25.1	50.1			0.5	8.8	43 (≈ 16.9 µg/mL)	
COc1ccc(N2C(=O)c3[nH]nc(CC(C)C)c3C2c2ccc(F)c(F)c2)cc1 (stereo not drawn) [Compound 65, 4-(3,4-difluorophenyl)-3-isobutyl-5-(4-methoxyphenyl)-4,5-dihydropyrrolo[3,4-c]pyrazol-6(1H)-one]	96.2	14		25.1	50.1			5	8.7	44 (≈ 17.5 µg/mL)	
COc1ccc(N2C(=O)c3[nH]nc(CC(C)C)c3C2c2c(Cl)cccc2Cl)cc1 (stereo not drawn) [Compound 66]	97.1	33		2.5	6.3			1	9.1	6 (≈ 2.58 µg/mL)	
COc1ccc(N2C(=O)c3[nH]nc(CC(C)C)c3C2C2CCN(Cc3ccccc3)CC2)cc1 (stereo not drawn) [Compound S1]	94.8	29		20	63.1			15.8	9.0	188 (≈ 86.2 µg/mL)	
COc1ccc(N2C(=O)c3[nH]nc(CC(C)C)c3C2c2cccs2)cc1 (stereo not drawn) [Compound S2]	95.9	30		> 50	> 100			7.9	8.2	8 (≈ 2.94 µg/mL)	
COc1ccc(N2C(=O)c3[nH]nc(CC(C)C)c3C2c2cncs2)cc1 (stereo not drawn) [Compound S4]	89.3	32		> 50	> 100			15.8	6.5	≥ 534	
COc1ccc(N2C(=O)c3[nH]nc(CC(C)C)c3C2c2nccs2)cc1 (stereo not drawn) [Compound S5]	89.5	42		> 50	> 100			20	7.2	143 (≈ 52.7 µg/mL)	
COc1ccc(N2C(=O)c3[nH]nc(CC(C)C)c3C2c2ccncc2)cc1 (stereo not drawn) [Compound S6]	87.9	23		> 50	> 100			> 50	6.3	≥ 432	
COc1ccc(N2C(=O)c3[nH]nc(CC(C)C)c3C2c2ccccn2)cc1 (stereo not drawn) [Compound S7]	86.8	42		> 50	> 100			31.6	7.1	≥ 450	
COc1ccc(N2C(=O)c3[nH]nc(CC(C)C)c3C2c2ccncn2)cc1 (stereo not drawn) [Compound S8]	76.8	34		> 50	> 100			> 50	6.3	273 (≈ 99.2 µg/mL)	
COc1ccc(N2C(=O)c3[nH]nc(CC(C)C)c3C2c2ccnnc2)cc1 (stereo not drawn) [Compound S9]	70.5	5		> 50	> 100			> 50	5.5	≥ 340	
COc1ccc(N2C(=O)c3[nH]nc(CC(C)C)c3C2c2cncc(OC)c2)cc1 (stereo not drawn) [Compound S11]	91.2	47		20	> 100			10	6.6	386 (≈ 151 µg/mL)	
COc1ccc(N2C(=O)c3[nH]nc(CC(C)C)c3C2c2ccc(OC)nc2)cc1 (stereo not drawn) [Compound S12]	92.6	44		> 50	> 100			> 50	7.5	272 (≈ 107 µg/mL)	
COc1ccc(N2C(=O)c3[nH]nc(CC(C)C)c3C2c2ccc(F)c(C)n2)cc1 (stereo not drawn) [Compound S13]	94.4	38		> 50	> 100			12.6	8.3	305 (≈ 120 µg/mL)	
COc1ccc(N2C(=O)c3[nH]nc(CC(C)C)c3C2c2cc(F)nc(F)c2)cc1 (stereo not drawn) [Compound S14]	93	54		> 50	> 100			> 50	7.4	367 (≈ 146 µg/mL)	
